From ChEMBL document CHEMBL1132062, “A new class of potent RAR antagonists: dihydroanthracenyl, benzochromenyl and benzothiochromenyl retinoids” (Bioorg Med Chem Lett, 1999)

Columns and labels:
Mus musculus [1] = organism: Mus musculus; experiment: Compound was tested for flaking score in mice at a dose of 3.6 nmol/25 g of TTNPB and 7.2 nmol/25 g of the compound; format: functional
Mus musculus [2] = organism: Mus musculus; experiment: Compound was tested for cutaneous toxicity score in mice at a dose of 3.6 nmol/25 g of TTNPB and 7.2 nmol/25 g of the compound; format: functional
Mus musculus [3] = organism: Mus musculus; experiment: Compound was tested for its effect on body weight gain in mice at a dose of 3.6 nmol/25 g of TTNPB and 7.2 nmol/25 g of the compound; format: functional
Mus musculus [4] = organism: Mus musculus; experiment: Compound was tested for abrasion score in mice at a dose of 3.6 nmol/25 g of TTNPB and 28.8 nmol/25 g of the compound; format: functional
Mus musculus [5] = organism: Mus musculus; experiment: Compound was tested for its effect on body weight gain in mice at a dose of 3.6 nmol/25 g of TTNPB and 28.8 nmol/25 g of the compound; format: functional
Mus musculus [6] = organism: Mus musculus; experiment: Compound was tested for cutaneous toxicity score in mice at a dose of 3.6 nmol/25 g of TTNPB and 28.8 nmol/25 g of the compound; format: functional
Mus musculus [7] = organism: Mus musculus; experiment: Compound was tested for abrasion score in mice at a dose of 3.6 nmol/25 g of TTNPB and 7.2 nmol/25 g of the compound; format: functional
Mus musculus [8] = organism: Mus musculus; experiment: Compound was tested for flaking score in mice at a dose of 3.6 nmol/25 g of TTNPB and 28.8 nmol/25 g of the compound; format: functional
[9] = molecular target: T1, Retinoic acid receptor alpha (Homo sapiens, UniProt P10276); experiment: Binding affinity of [3H]- RA to baculovirus expressed human RAR alpha
T1 sequence (P10276 whole entry): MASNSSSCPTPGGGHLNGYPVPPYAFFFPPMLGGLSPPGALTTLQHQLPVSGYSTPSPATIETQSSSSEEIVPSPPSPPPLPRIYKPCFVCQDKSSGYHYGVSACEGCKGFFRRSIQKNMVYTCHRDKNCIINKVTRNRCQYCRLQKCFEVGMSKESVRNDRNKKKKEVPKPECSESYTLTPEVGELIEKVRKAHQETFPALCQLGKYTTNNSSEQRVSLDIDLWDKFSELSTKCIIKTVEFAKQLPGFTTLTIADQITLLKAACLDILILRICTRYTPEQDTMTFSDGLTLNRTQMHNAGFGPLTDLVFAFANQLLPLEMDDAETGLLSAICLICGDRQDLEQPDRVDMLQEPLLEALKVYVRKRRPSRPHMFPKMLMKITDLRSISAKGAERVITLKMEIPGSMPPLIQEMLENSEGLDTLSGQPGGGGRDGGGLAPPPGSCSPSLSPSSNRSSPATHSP

[10] = molecular target: T1, Retinoic acid receptor alpha; experiment: Antagonistic activity against RAR alpha in transcriptional activation assay with 32 nM TTNPB; format: functional
[11] = molecular target: T2, Retinoic acid receptor beta (Homo sapiens, UniProt P10826); experiment: Binding affinity of [3H]- RA to baculovirus expressed human Retinoic acid receptor beta
T2 sequence (P10826 whole entry): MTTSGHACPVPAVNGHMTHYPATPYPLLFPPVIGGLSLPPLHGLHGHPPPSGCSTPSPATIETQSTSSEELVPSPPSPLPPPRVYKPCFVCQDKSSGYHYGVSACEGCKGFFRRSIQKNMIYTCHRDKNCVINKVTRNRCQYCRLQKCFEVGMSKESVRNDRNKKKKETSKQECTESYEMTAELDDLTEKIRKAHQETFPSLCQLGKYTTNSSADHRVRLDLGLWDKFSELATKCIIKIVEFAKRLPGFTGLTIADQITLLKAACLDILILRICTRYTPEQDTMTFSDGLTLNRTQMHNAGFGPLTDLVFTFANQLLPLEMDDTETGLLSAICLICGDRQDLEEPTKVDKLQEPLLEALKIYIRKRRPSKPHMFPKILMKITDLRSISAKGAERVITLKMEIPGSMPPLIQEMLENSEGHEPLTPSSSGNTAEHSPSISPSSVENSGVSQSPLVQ

[12] = molecular target: T2, Retinoic acid receptor beta; experiment: Antagonistic activity against RAR beta in transcriptional activation assay with 10 nM TTNPB; format: functional
[13] = molecular target: T3, Retinoic acid receptor gamma (Homo sapiens, UniProt P13631); experiment: Binding affinity of [3H]- RA to baculovirus expressed human Retinoic acid receptor gamma
T3 sequence (P13631 whole entry): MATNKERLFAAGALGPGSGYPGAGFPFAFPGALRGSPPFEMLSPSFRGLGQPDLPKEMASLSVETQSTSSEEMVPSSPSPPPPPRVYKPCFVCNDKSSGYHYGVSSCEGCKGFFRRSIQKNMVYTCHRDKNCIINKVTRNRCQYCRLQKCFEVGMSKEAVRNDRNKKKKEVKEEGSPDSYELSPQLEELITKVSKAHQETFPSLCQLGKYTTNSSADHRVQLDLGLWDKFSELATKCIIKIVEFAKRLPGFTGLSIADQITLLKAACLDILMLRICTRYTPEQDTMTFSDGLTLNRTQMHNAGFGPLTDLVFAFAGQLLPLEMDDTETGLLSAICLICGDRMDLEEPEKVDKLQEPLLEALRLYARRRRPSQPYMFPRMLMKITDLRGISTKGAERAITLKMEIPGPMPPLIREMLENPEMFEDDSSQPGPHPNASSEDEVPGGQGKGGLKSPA

[14] = molecular target: T3, Retinoic acid receptor gamma; experiment: Antagonistic activity against RAR gamma in transcriptional activation assay with 3.2 nM TTNPB; format: functional
[15] = molecular target: T4, Retinoic acid receptor beta (Homo sapiens) (UniProt P10826); experiment: Relative inhibition of TTNPB activity vs background activity (100% inhibition) against RAR beta; format: functional; conditions: concentration not given here
T4 sequence (whole entry): T2 sequence (P10826 whole entry)

[16] = molecular target: T5, Retinoic acid receptor gamma (Homo sapiens) (UniProt P13631); experiment: Relative inhibition of TTNPB activity vs background activity(100% inhibition) against RAR gamma; format: functional; conditions: concentration not given here
T5 sequence (whole entry): T3 sequence (P13631 whole entry)

[17] = molecular target: T6, Retinoic acid receptor alpha (Homo sapiens) (UniProt P10276); experiment: Relative inhibition of TTNPB activity vs background activity (100% inhibition) against RAR alpha; format: functional; conditions: concentration not given here
T6 sequence (whole entry): T1 sequence (P10276 whole entry)

Mus musculus [18] = organism: Mus musculus; experiment: Compound was tested for cutaneous toxicity score in mice at a dose of 3.6 nmol/25 g; format: functional
Mus musculus [19] = organism: Mus musculus; experiment: Compound was tested for abrasion score in mice at a dose of 3.6 nmol/25 g; format: functional
Mus musculus [20] = organism: Mus musculus; experiment: Compound was tested for flaking score in mice at a dose of 3.6 nmol/25 g; format: functional
Mus musculus [21] = organism: Mus musculus; experiment: Compound was tested for its effect on body weight gain in mice at a dose of 3.6 nmol/25 g; format: functional

Row | Compound | Kd [9] [nM] | IC50 [10] [nM] | Kd [11] [nM] | IC50 [12] [nM] | Kd [13] [nM] | IC50 [14] [nM] | inhibition [15] [%] | inhibition [16] [%] | inhibition [17] [%] | also measured
1 | C/C(=C\c1ccc(C(=O)O)cc1)c1ccc2c(c1)C(C)(C)CCC2(C)C.Cc1ccc(C2=CCC(C)(C)c3cc4ccc(-c5ccc(C(=O)O)cc5)cc4cc32)cc1 |  |  |  |  |  |  |  |  |  | Flaking score (Mus musculus [1]): 1; Cutaneous toxicology score (Mus musculus [2]): 2; Gain (Mus musculus [3]): 2%; Abrasion score (Mus musculus [4]): 0; Gain (Mus musculus [5]): 5%; Cutaneous toxicology score (Mus musculus [6]): 1.1; Abrasion score (Mus musculus [7]): 1; Flaking score (Mus musculus [8]): 1
2 | Cc1ccc(C2=CC(C)(C)Sc3cc4ccc(-c5ccc(C(=O)O)cc5)cc4cc32)cc1 [listing 1 of 2 here] | 5.5 | 1.5 | 6 | 2 | 5 | 0.5 |  |  |  | 
3 | Cc1ccc(C2=CC(C)(C)Oc3cc4ccc(-c5ccc(C(=O)O)cc5)cc4cc32)cc1 [listing 1 of 2 here] |  |  |  |  |  |  | 98 | 98 | 97 | 
4 | Cc1ccc(C2=CC(C)(C)Sc3cc4ccc(-c5ccc(C(=O)O)cc5)cc4cc32)cc1 [listing 2 of 2 here] |  |  |  |  |  |  | 98 | 98 | 97 | 
5 | Cc1ccc(C2=CCC(C)(C)c3cc4ccc(-c5ccc(C(=O)O)cc5)cc4cc32)cc1 [listing 1 of 2 here] | 13 | 20 | 4 | 22 | 7 | 2 |  |  |  | 
6 | Cc1ccc(C2=CC(C)(C)Oc3cc4ccc(-c5ccc(C(=O)O)cc5)cc4cc32)s1 |  | 6.5 |  | 6.5 |  | 4 | 98 | 97 | 97 | 
7 | Cc1ccc(C2=CC(C)(C)Oc3cc4ccc(-c5ccc(C(=O)O)cc5)cc4cc32)cc1 [listing 2 of 2 here] | 14 | 5.5 | 7 | 7.5 | 14 | 2 |  |  |  | 
8 | C/C(=C\c1ccc(C(=O)O)cc1)c1ccc2c(c1)C(C)(C)CCC2(C)C |  |  |  |  |  |  |  |  |  | Cutaneous toxicology score (Mus musculus [18]): 11; Abrasion score (Mus musculus [19]): 2; Flaking score (Mus musculus [20]): 3; Gain (Mus musculus [21]): 6%
9 | C/C(=C\c1ccc(C(=O)O)cc1)c1ccc2c(c1)C(C)(C)CCC2(C)C.Cc1ccc(C2=CC(C)(C)Sc3cc4ccc(-c5ccc(C(=O)O)cc5)cc4cc32)cc1 |  |  |  |  |  |  |  |  |  | Flaking score (Mus musculus [1]): 1; Cutaneous toxicology score (Mus musculus [2]): 1.4; Gain (Mus musculus [3]): 5%; Abrasion score (Mus musculus [4]): 0; Gain (Mus musculus [5]): 0%; Cutaneous toxicology score (Mus musculus [6]): 0.7; Abrasion score (Mus musculus [7]): 0; Flaking score (Mus musculus [8]): 1
10 | C/C(=C\c1ccc(C(=O)O)cc1)c1ccc2c(c1)C(C)(C)CCC2(C)C.Cc1ccc(C2=CC(C)(C)Oc3cc4ccc(-c5ccc(C(=O)O)cc5)cc4cc32)s1 |  |  |  |  |  |  |  |  |  | Flaking score (Mus musculus [1]): 2; Cutaneous toxicology score (Mus musculus [2]): 4.6; Gain (Mus musculus [3]): 6%; Abrasion score (Mus musculus [4]): 1; Gain (Mus musculus [5]): 1%; Cutaneous toxicology score (Mus musculus [6]): 3; Abrasion score (Mus musculus [7]): 3; Flaking score (Mus musculus [8]): 2
11 | C/C(=C\c1ccc(C(=O)O)cc1)c1ccc2c(c1)C(C)(C)CCC2(C)C.Cc1ccc(C2=CC(C)(C)Oc3cc4ccc(-c5ccc(C(=O)O)cc5)cc4cc32)cc1 |  |  |  |  |  |  |  |  |  | Flaking score (Mus musculus [1]): 1; Cutaneous toxicology score (Mus musculus [2]): 1.9; Gain (Mus musculus [3]): 3%; Abrasion score (Mus musculus [4]): 0; Gain (Mus musculus [5]): 2%; Cutaneous toxicology score (Mus musculus [6]): 1; Abrasion score (Mus musculus [7]): 1; Flaking score (Mus musculus [8]): 1
12 | Cc1ccc(C2=CCC(C)(C)c3cc4ccc(-c5ccc(C(=O)O)cc5)cc4cc32)cc1 [listing 2 of 2 here] |  |  |  |  |  |  | 97 | 98 | 97 | 
13 | Cc1ccc(C2=CC(C)(C)Sc3cc4ccc(-c5ccc(C(=O)O)cc5)cc4cc32)s1 | 13 |  | 13 |  | 18 |  |  |  |  | 
14 | Cc1ccc(C2=CCC(C)(C)c3cc4ccc(-c5ccc(C(=O)O)cc5)cc4cc32)s1 | 15 | 20 | 6 | 15 | 11 | 2 | 83 | 96 | 95 | 
